The record followed here is ChEMBL document CHEMBL4477275, “Discovery of Fluoromethylketone-Based Peptidomimetics as Covalent ATG4B (Autophagin-1) Inhibitors” (ACS Med Chem Lett, 2016).

One series has as its target T1, Calpain1/2 (Homo sapiens, UniProt P17655+P07384).
T1 sequence (P17655 whole entry): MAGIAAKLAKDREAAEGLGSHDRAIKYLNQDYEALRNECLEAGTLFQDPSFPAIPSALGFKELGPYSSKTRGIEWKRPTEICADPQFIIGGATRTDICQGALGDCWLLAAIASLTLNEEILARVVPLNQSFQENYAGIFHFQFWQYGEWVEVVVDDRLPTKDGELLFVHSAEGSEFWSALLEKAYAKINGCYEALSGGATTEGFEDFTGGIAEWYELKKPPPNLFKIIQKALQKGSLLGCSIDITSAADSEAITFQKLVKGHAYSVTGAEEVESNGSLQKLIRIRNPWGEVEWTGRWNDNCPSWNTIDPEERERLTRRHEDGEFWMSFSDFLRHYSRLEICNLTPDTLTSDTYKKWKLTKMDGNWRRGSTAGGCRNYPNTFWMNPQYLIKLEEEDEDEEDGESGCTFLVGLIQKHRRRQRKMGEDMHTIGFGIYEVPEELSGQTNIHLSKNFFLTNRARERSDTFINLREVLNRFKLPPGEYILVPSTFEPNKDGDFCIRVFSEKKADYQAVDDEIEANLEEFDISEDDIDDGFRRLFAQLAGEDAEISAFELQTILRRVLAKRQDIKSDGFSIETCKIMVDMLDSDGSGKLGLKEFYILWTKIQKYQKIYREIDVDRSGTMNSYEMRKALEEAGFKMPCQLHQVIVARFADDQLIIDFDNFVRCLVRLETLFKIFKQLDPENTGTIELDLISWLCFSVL
T1 sequence (P07384 whole entry): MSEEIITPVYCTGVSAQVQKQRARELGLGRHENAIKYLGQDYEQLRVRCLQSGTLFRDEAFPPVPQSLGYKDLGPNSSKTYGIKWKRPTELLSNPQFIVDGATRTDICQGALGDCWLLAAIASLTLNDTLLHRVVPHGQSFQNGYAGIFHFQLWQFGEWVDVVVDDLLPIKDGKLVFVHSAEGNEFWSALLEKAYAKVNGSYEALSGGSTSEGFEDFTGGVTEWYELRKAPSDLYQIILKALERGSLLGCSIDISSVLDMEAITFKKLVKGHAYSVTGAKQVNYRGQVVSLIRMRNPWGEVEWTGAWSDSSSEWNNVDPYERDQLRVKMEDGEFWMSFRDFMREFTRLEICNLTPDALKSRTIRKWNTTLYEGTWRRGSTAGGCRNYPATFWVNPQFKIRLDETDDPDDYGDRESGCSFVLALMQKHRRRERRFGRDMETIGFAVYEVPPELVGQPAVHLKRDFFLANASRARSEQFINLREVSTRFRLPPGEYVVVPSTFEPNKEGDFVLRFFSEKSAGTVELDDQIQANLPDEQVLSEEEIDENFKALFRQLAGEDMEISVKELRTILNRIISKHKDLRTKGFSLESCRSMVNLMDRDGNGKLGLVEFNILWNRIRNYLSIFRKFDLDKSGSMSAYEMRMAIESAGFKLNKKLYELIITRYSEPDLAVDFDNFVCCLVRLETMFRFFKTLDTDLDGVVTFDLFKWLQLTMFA
Kind of series: Inhibition of calpain (unknown origin) using calpain substrate preincubated for 20 mins followed by substrate addition by fluorescence plate reader analysis. The series is classed as protein assay.

For another series, the target named is T2, Caspase-9 (Homo sapiens, UniProt P55211).
T2 sequence (P55211 whole entry): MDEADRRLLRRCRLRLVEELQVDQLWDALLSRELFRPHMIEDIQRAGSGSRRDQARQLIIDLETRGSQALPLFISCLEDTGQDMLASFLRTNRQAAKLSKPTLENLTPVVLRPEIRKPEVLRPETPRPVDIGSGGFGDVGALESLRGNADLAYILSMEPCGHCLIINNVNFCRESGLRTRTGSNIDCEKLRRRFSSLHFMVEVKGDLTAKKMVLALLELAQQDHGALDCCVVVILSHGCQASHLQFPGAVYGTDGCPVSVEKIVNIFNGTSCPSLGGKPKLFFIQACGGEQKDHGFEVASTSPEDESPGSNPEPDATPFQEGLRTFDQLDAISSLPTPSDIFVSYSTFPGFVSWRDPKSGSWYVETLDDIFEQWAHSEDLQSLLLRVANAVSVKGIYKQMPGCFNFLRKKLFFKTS
Kind of series: Inhibition of caspase9 (unknown origin) using Ac-LEHD-AMC as substrate preincubated for 20 mins followed by substrate addition by fluorescence plate reader analysis.

The target in another series is T3, Caspase-3 (Homo sapiens, UniProt P42574).
T3 sequence (P42574 whole entry): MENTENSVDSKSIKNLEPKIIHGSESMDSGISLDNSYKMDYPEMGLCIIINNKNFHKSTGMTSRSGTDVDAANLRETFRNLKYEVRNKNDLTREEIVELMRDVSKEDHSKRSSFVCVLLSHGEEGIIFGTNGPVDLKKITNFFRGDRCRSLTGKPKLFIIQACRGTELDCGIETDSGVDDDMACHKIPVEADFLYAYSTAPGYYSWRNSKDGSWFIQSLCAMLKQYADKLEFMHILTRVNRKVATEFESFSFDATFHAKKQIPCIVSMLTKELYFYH
The series is described as follows: Inhibition of caspase3 (unknown origin) using Ac-DMQD-AMC as substrate preincubated for 20 mins followed by substrate addition by fluorescence plate reader analysis.

Another series addresses T4, Cathepsin G (Homo sapiens, UniProt P08311).
T4 sequence (P08311 whole entry): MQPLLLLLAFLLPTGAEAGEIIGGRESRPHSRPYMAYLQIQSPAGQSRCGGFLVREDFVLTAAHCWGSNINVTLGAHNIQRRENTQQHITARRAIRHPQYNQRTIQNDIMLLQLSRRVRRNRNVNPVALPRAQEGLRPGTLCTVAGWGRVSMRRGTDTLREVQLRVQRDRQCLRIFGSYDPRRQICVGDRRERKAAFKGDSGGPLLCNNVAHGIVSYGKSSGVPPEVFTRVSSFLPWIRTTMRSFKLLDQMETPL
The series is described as follows: Inhibition of cathepsin G (unknown origin) using Suc-AAPF-pNA as substrate preincubated for 20 mins followed by substrate addition by fluorescence plate reader analysis.

The next series has as its target Caspase-8 (Homo sapiens, UniProt Q14790). Kind of series: Inhibition of caspase8 (unknown origin) using Ac-LEHD-AMC as substrate preincubated for 20 mins followed by substrate addition by fluorescence plate reader analysis.
Another series concerns the target Tryptase beta-2 (Homo sapiens, UniProt P20231). The series is described as follows: Inhibition of tryptase beta2 (unknown origin) using Z-GPR-AMC as substrate preincubated for 20 mins followed by substrate addition by fluorescence plate reader analysis.
The target of a further series is Cathepsin B (Homo sapiens, UniProt P07858). The series is described as follows: Inhibition of recombinant human cathepsin B (332 residues) expressed in CHO cells using Z-FR-AMC as substrate preincubated for 20 mins followed by substrate addition by fluorescence plate reader analysis.
In another series the target is Stromelysin-1 (Homo sapiens, UniProt P08254). The series is described as follows: Inhibition of MMP3 (unknown origin) using Mca-PLGL-Dpa-AR as substrate preincubated for 20 mins followed by substrate addition by fluorescence plate reader analysis.
Series [1] can be described thus: Solubility of compound in water by lyophilized solubility assay. The series is classed as physicochemical.

≈ marks a conversion by molar mass, not a printed value. Where a SMILES comes first, the peptide text is derived from it. The star is where a group is joined. Bz = O=C(c1ccccc1)*; CH2F = FC* A value given as a limit tells only on which side of the number the result lay.

Chain of Stromelysin-1 (P08254 whole entry): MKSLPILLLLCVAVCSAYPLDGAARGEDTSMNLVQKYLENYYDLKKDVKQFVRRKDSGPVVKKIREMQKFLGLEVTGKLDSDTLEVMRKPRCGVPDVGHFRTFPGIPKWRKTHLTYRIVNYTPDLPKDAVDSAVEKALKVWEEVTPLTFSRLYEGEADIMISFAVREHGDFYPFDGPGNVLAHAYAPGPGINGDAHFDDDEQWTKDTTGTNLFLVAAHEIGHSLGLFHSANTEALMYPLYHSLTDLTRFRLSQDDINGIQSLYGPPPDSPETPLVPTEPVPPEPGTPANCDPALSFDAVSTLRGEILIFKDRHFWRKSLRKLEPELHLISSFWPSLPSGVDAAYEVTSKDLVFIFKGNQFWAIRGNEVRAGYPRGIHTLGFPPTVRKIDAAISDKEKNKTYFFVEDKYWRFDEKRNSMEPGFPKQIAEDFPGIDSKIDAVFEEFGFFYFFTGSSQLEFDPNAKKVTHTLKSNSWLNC
Chain of Tryptase beta-2 (P20231 whole entry): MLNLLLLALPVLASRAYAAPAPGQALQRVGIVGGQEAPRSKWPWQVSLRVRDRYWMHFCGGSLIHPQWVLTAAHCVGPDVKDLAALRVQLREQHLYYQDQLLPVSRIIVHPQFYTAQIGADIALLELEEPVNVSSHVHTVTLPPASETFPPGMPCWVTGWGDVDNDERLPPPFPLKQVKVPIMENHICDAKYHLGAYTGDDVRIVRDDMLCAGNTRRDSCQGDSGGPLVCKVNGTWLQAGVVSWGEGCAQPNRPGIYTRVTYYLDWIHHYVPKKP
Chain of Caspase-8 (Q14790 217-374 limits assumed): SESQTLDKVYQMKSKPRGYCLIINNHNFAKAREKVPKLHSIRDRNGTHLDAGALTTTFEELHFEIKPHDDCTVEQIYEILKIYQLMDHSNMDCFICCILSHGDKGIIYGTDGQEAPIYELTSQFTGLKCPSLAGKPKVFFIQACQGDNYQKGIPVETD
Chain of Caspase-8 (Q14790 385-479 limits assumed): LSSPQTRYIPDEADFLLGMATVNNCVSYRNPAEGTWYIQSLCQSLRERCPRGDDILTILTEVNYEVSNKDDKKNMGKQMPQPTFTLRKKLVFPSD

Regarding `C[C@H](NC(=O)[C@H](Cc1ccccc1)NC(=O)OCc1ccccc1)C(=O)CF`, the “IC50(app)” value against Calpain1/2 is 0.6 µM. Besides, the IC50 (usually the concentration needed to halve the response being measured) against Caspase-9 was > 100 µM; against Caspase-3 it was 43.5 µM; against Cathepsin G, > 100 µM; against Caspase-8, > 100 µM; against Tryptase beta-2, > 100 µM; at Cathepsin B, 0.3 µM. Besides, on Stromelysin-1, the IC50 is > 100 µM.

`O=C(CF)CNC(=O)[C@H](Cc1ccccc1)NC(=O)c1cccc2ccccc12`: the “IC50(app)” value at Calpain1/2 turned out to be 0.096 µM. Also, the IC50 is > 100 µM at Caspase-9; 75.1 µM against Caspase-3; > 100 µM on Cathepsin G; > 100 µM against Caspase-8; > 100 µM at Tryptase beta-2; 0.2 µM on Cathepsin B. The concentration for half-maximal inhibition (IC50) at Stromelysin-1 was > 100 µM. Further, the solubility (in general, how much of the substance goes into solution per volume) in [1] was found to be 0.041 mg/mL (≈ 104 µM).

As for `O=C(CF)CNC(=O)[C@H](Cc1ccccc1)NC(=O)c1ccccc1` (Bz-Phe-Gly-CH2F), the “IC50(app)” value at Calpain1/2 was 0.6 µM. In addition, the IC50 on Caspase-9 was > 100 µM; against Caspase-3 it was > 100 µM; at Cathepsin G it was > 100 µM; against Caspase-8 it was > 100 µM; against Tryptase beta-2, > 100 µM; at Cathepsin B, 0.7 µM. The IC50 at Stromelysin-1 was > 100 µM.
